Data: ChEMBL document CHEMBL1125556, “Fluoroquinolones: relationships between structural variations, mammalian cell cytotoxicity, and antimicrobial activity” (J Med Chem, 1992)
Converted amounts (≈) assume the structure as drawn.

Columns and labels:
V79 = experiment: Mammalian cell cytotoxicity test in chinese hamster V79 cells (clonogenic cytotoxicity); format: functional, cell-based
[1] = Antibacterial activity against five Gram-negative bacteria; format: functional
[2] = Cricetulus griseus, V79, read-out: IC50

CCn1cc(C(=O)O)c(=O)c2cc(F)c(N3CCC(N)C3)c(F)c21 (stereo not drawn)
IC50 (V79; [2]): 300 µg/mL (≈ 889 µM)
MIC ([1]; read-out: MIC): 0.12 µg/mL (≈ 0.356 µM)

CCNCC1CCN(c2c(F)c(C)c3c(=O)c(C(=O)O)cn(C4CC4)c3c2F)C1 (stereo not drawn)
IC50 (V79; [2]): 9 µg/mL (≈ 22.2 µM)
MIC ([1]; read-out: MIC): 0.28 µg/mL (≈ 0.691 µM)

CCNCC1CCN(c2cc3c(cc2F)c(=O)c(C(=O)O)cn3NC)C1 (stereo not drawn)
IC50 (V79; [2]): > 500 µg/mL
MIC ([1]; read-out: MIC): 12.5 µg/mL (≈ 34.5 µM)

NC1CCN(c2nc3c(cc2F)c(=O)c(C(=O)O)cn3-c2ccc(F)cc2F)C1 (stereo not drawn) [TOSUFLOXACIN]
IC50 (V79; [2]): 128 µg/mL (≈ 317 µM)
MIC ([1]; read-out: MIC): 0.09 µg/mL (≈ 0.223 µM)

COc1c(N2CCC(N)C2)c(F)cc2c(=O)c(C(=O)O)cn(C3CC3)c12 (stereo in doubt; 24d)
IC50 (V79; v79): 45 µg/mL (≈ 125 µM)
MIC ([1]; read-out: MIC): 0.07 µg/mL (≈ 0.194 µM)

CCNCC1CCN(c2c(F)cc3c(=O)c(C(=O)O)cn(C4CC4)c3c2Cl)C1 (stereo in doubt; 26c)
IC50 (V79; v79): 11 µg/mL (≈ 27 µM)
MIC ([1]; read-out: MIC): 0.14 µg/mL (≈ 0.343 µM)

CCNCC1CCN(c2cc3c(c(C)c2F)c(=O)c(C(=O)O)cn3C2CC2)C1 (stereo not drawn)
IC50 (V79; [2]): 42 µg/mL (≈ 108 µM)
MIC ([1]; read-out: MIC): 0.6 µg/mL (≈ 1.55 µM)

CCn1cc(C(=O)O)c(=O)c2cc(F)c(N3CCNCC3)cc21 [NORFLOXACIN]
IC50 (V79; [2]): > 500 µg/mL
MIC ([1]; read-out: MIC): 0.06 µg/mL (≈ 0.188 µM)

CC1CN(c2c(F)cc3c(=O)c(C(=O)O)cn(C4CC4)c3c2F)CC(C)N1 (stereo not drawn)
IC50 (V79; [2]): 150 µg/mL (≈ 397 µM)
MIC ([1]; read-out: MIC): 0.05 µg/mL (≈ 0.132 µM)

CC1(CN)CCN(c2nc3c(cc2F)c(=O)c(C(=O)O)cn3C2CC2)C1 (stereo not drawn)
IC50 (V79; [2]): 25 µg/mL (≈ 69.4 µM)
MIC ([1]; read-out: MIC): 0.35 µg/mL (≈ 0.971 µM)

Cc1c(F)c(N2CCC(N)C2)c(C(F)(F)F)c2c1c(=O)c(C(=O)O)cn2C1CC1 (stereo not drawn)
IC50 (V79; [2]): 290 µg/mL (≈ 702 µM)
MIC ([1]; read-out: MIC): 0.91 µg/mL (≈ 2.2 µM)

NC1CCN(c2c(F)c(F)c3c(=O)c(C(=O)O)cn(C4CC4)c3c2F)C1 (stereo not drawn)
IC50 (V79; [2]): 100 µg/mL (≈ 272 µM)
MIC ([1]; read-out: MIC): 0.08 µg/mL (≈ 0.218 µM)

NC1CCN(c2c(F)cc3c(=O)c(C(=O)O)cn(C4CC4)c3c2Cl)CC1
IC50 (V79; [2]): 18 µg/mL (≈ 47.4 µM)
MIC ([1]; read-out: MIC): 0.08 µg/mL (≈ 0.211 µM)

CNCC1(C)CCN(c2c(F)cc3c(=O)c(C(=O)O)cn(C4CC4)c3c2OC)C1 (stereo not drawn)
IC50 (V79; [2]): 120 µg/mL (≈ 297 µM)
MIC ([1]; read-out: MIC): 0.52 µg/mL (≈ 1.29 µM)

NC1CCN(c2c(F)cc3c(=O)c(C(=O)O)cn(C4CC4)c3c2F)C1 (stereo in doubt; 24b)
IC50 (V79; v79): 30 µg/mL (≈ 85.9 µM)
MIC [1]: 0.04 µg/mL (≈ 0.115 µM)

CC1(CN)CCN(c2c(F)cc3c(=O)c(C(=O)O)cn(C4CC4)c3c2C(F)(F)F)C1 (stereo not drawn)
IC50 (V79; [2]): 110 µg/mL (≈ 257 µM)
MIC ([1]; read-out: MIC): 1 µg/mL (≈ 2.34 µM)

NC1CCCN(c2c(F)cc3c(=O)c(C(=O)O)cn(C4CC4)c3c2F)C1 (stereo not drawn)
IC50 (V79; [2]): 53 µg/mL (≈ 146 µM)
MIC ([1]; read-out: MIC): 0.13 µg/mL (≈ 0.358 µM)

CNCC1(C)CCN(c2cc3c(cc2F)c(=O)c(C(=O)O)cn3C2CC2)C1 (stereo not drawn)
IC50 (V79; [2]): 205 µg/mL (≈ 549 µM)
MIC ([1]; read-out: MIC): 0.4 µg/mL (≈ 1.07 µM)

CCNCC1CCN(c2c(F)cc3c(=O)c(C(=O)O)cn(C4CC4)c3c2[N+](=O)[O-])C1 (stereo not drawn)
IC50 (V79; [2]): 67 µg/mL (≈ 160 µM)
MIC ([1]; read-out: MIC): 1.05 µg/mL (≈ 2.51 µM)

CSc1c(N2CCC(N)C2)c(F)cc2c(=O)c(C(=O)O)cn(C3CC3)c12 (stereo not drawn)
IC50 (V79; [2]): 31 µg/mL (≈ 82.1 µM)
MIC ([1]; read-out: MIC): 0.2 µg/mL (≈ 0.53 µM)

CCNCC1CCN(c2c(F)cc3c(=O)c(C(=O)O)cn(-c4ccc(F)cc4F)c3c2Cl)C1 (stereo not drawn)
IC50 (V79; [2]): 130 µg/mL (≈ 271 µM)
MIC ([1]; read-out: MIC): 1.05 µg/mL (≈ 2.19 µM)

CC1(CN)CCN(c2c(F)cc3c(=O)c(C(=O)O)cn(C4CC4)c3c2F)C1 (stereo not drawn)
IC50 (V79; [2]): 8 µg/mL (≈ 21.2 µM)
MIC ([1]; read-out: MIC): 0.13 µg/mL (≈ 0.344 µM)

NC1CCN(c2c(F)cc3c(=O)c(C(=O)O)cn(C4CC4)c3c2C(F)(F)F)C1 (stereo in doubt; 45)
IC50 (V79; [2]): 300 µg/mL (≈ 751 µM)
MIC ([1]; read-out: MIC): 0.2 µg/mL (≈ 0.501 µM)

CCNCC1CCN(c2cc3c(cc2F)c(=O)c(C(=O)O)cn3-c2ccc(F)cc2F)C1 (stereo in doubt; 17)
IC50 (V79; v79): 190 µg/mL (≈ 427 µM)
MIC [1]: 0.8 µg/mL (≈ 1.8 µM)

NC1CCN(c2c(F)cc3c(=O)c(C(=O)O)cn(C4CC4)c3c2F)CC1
IC50 (V79; [2]): 23 µg/mL (≈ 63.3 µM)
MIC ([1]; read-out: MIC): 0.2 µg/mL (≈ 0.55 µM)

NC1CCN(c2cc3c(c(O)c2F)c(=O)c(C(=O)O)cn3C2CC2)C1 (stereo not drawn)
IC50 (V79; [2]): 72 µg/mL (≈ 207 µM)
MIC ([1]; read-out: MIC): 0.04 µg/mL (≈ 0.115 µM)

C=Cn1cc(C(=O)O)c(=O)c2cc(F)c(N3CCC(N)C3)c(F)c21 (stereo not drawn)
IC50 (V79; [2]): 310 µg/mL (≈ 925 µM)
MIC ([1]; read-out: MIC): 0.13 µg/mL (≈ 0.388 µM)

CCNCC1CCN(c2cc3c(c(N)c2F)c(=O)c(C(=O)O)cn3C2CC2)C1 (stereo not drawn)
IC50 (V79; [2]): 61 µg/mL (≈ 157 µM)
MIC ([1]; read-out: MIC): 0.35 µg/mL (≈ 0.901 µM)

CCNCC1CCN(c2c(F)cc3c(=O)c(C(=O)O)cn(C4CC4)c3c2F)C1 (stereo in doubt; 12) [PD-117558]
IC50 (V79; [2]): 11 µg/mL (≈ 28.1 µM)
MIC ([1]; read-out: MIC): 0.05 µg/mL (≈ 0.128 µM)

O=C(O)c1cn(-c2ccc(F)cc2F)c2cc(N3CCNCC3)c(F)cc2c1=O
IC50 (V79; [2]): > 500 µg/mL
MIC ([1]; read-out: MIC): 0.11 µg/mL (≈ 0.273 µM)

NC1CCN(c2c(F)cc3c(=O)c(C(=O)O)cn(C4CC4)c3c2[N+](=O)[O-])C1 (stereo not drawn)
IC50 (V79; [2]): 69 µg/mL (≈ 183 µM)
MIC ([1]; read-out: MIC): 0.46 µg/mL (≈ 1.22 µM)

O=C(O)c1cn(C2CC2)c2c(F)c(N3CCCC3)c(F)cc2c1=O
IC50 (V79; [2]): 120 µg/mL (≈ 359 µM)
MIC ([1]; read-out: MIC): 0.1 µg/mL (≈ 0.299 µM)

COc1c(N2CCNCC2)c(F)cc2c(=O)c(C(=O)O)cn(C3CC3)c12
IC50 (V79; [2]): 82 µg/mL (≈ 227 µM)
MIC ([1]; read-out: MIC): 0.07 µg/mL (≈ 0.194 µM)

O=C(O)c1cn(C2CC2)c2cc(N3CCCC3)c(F)cc2c1=O
IC50 (V79; [2]): 38 µg/mL (≈ 120 µM)
MIC ([1]; read-out: MIC): 0.2 µg/mL (≈ 0.632 µM)

Nc1c(F)c(N2CCC(N)C2)cc2c1c(=O)c(C(=O)O)cn2C1CC1 (stereo not drawn)
IC50 (V79; [2]): 54 µg/mL (≈ 156 µM)
MIC ([1]; read-out: MIC): 0.04 µg/mL (≈ 0.115 µM)

CC1CN(c2c(F)cc3c(=O)c(C(=O)O)cn(C4CC4)c3c2Cl)CCN1 (stereo not drawn)
IC50 (V79; [2]): 45 µg/mL (≈ 118 µM)
MIC ([1]; read-out: MIC): 0.08 µg/mL (≈ 0.211 µM)

COc1c(N2CCCC(N)C2)c(F)cc2c(=O)c(C(=O)O)cn(C3CC3)c12 (stereo not drawn)
IC50 (V79; [2]): 69 µg/mL (≈ 184 µM)
MIC ([1]; read-out: MIC): 0.23 µg/mL (≈ 0.613 µM)

CCNCC1CCN(c2c(F)c(NC(C)=O)c3c(=O)c(C(=O)O)cn(C4CC4)c3c2F)C1 (stereo not drawn)
IC50 (V79; [2]): > 500 µg/mL
MIC ([1]; read-out: MIC): > 25 µg/mL

NC1CCN(c2c(F)c(O)c3c(=O)c(C(=O)O)cn(C4CC4)c3c2F)C1 (stereo not drawn)
IC50 (V79; [2]): 43 µg/mL (≈ 118 µM)
MIC ([1]; read-out: MIC): 0.03 µg/mL (≈ 0.0821 µM)
